What was measured:
Parkinson models = details: in vivo; cited from earlier work
[1] = tested on: neurons of the substantia nigra; test: Acute MPTP model (including apoptosis), FluoroJade stain of degenerating neurons; type: in vivo; details: mouse; for Number of degenerating neurons: FluoroJade stain
Description: About 16 hours before, Rotigotine is administered in doses of 0.3, 1 or 3 mg/kg each as the so-called ‘Slow-Release-Formulation’. […] After 24 hours the animals are killed and the brains fixed. The brain sections are stained with FluoroJade for identification of degenerated cells. The immunohistochemical marking of tyrosine-hydroxylase served the purpose of identification of dopaminergic neurons.

[2] = tested on: dopamine transporter (DAT) in striatum; test: Subacute MPTP model, [125I]PE2I dopamine transporter binding in striatum sections; type: in vivo; details: mouse
Description: Groups 1-7 were treated in the following manner: Group 1: Untreated control; Group 2: Control group treated with the excipient solution for Rotigotine and MPTP; Group 3: MPTP treatment; Group 4: MPTP treatment plus Rotigotine 0.3 mg/kg; Group 5: MPTP treatment plus Rotigotine 1.0 mg/kg; Group 6: MPTP treatment plus Rotigotine 3.0 mg/kg; Group 7: Treatment only with Rotigotine (3.0 mg/kg)
For intoxication, mice are administered 80 mg/kg of the neurotoxin 1-methyl-4-phenyl-1,2,3,6-tetrahydro-pyridine (MPTP) (in portions of 20 mg/kg at two-hour intervals, Group 3-6 in FIGS. 1 and 2), leading to a degeneration of the neurons of the substantia nigra of about 50-60% (maximum degeneration in Group 3 in FIGS. 1 and 2). Rotigotine is administered daily in doses of 0.3, 1, or 3 mg/kg each for 7 days in the so-called ‘Slow-Release-Formulation’ (see Working Example 2) (Group 4-6 in FIGS. 1 and 2). A group of MPTP treated animals (Group 3) is given Rotigotine excipient solution (see Working Example 2 without Rotigotine HCl) and serves as reference. […] PE2I ([^125I]-(E)-N(3-iodoprop-2-enyl)-2β-carboxymethyl-3β-(4′-methylphenyl)-nortropane) in phosphate buffer, pH 7.4, in order to mark the quantity of the still present dopamin transporter in striatum and thereby to indicate the quantity of functioning nerve ends.

[3] = tested on: MPTP-treated (macaque) monkeys; test: Progressive MPTP primate model (pilot study); type: in vivo
Description: In the model used, which reflects the progressive course of the Parkinson's disease on primates, subliminal toxic doses of MPTP were injected in (macaque) monkeys for several days. The Parkinson symptoms developed in the model in a period of about 2 weeks. As soon as a certain degree of damage was reached, Rotigotine was injected daily in a formulation that built up a continuous plasma level for 24 h. The MPTP injections were stopped as soon as the motor activity was reduced by a certain degree (approx. 5 days later). The behavior of the animals was assessed on a daily basis.
At the end of the Rotigotine injection or washout phase, a group each of animals was killed and the condition of the basal ganglion was examined histologically and biochemically.

Parkinson patients = details: cited from earlier work

Compound | Activity in Parkinson models (Parkinson models) | Number of degenerating neurons ([1]; MPTP excipient + Rotigotine 3.0 mg/kg (Rotigotine alone)) | Number of degenerating neurons ([1]; MPTP intoxication + Rotigotine 0.3 mg/kg) | Number of degenerating neurons ([1]; MPTP intoxication + Rotigotine 1.0 mg/kg) | Number of degenerating neurons ([1]; MPTP intoxication + Rotigotine 3.0 mg/kg) | Staining of tyrosine hydroxylase, treated versus untreated animals ([1]; acute MPTP model, 24 hours after MPTP, immunohistochemistry) | Decrease in the number of degenerated neurons after application of Rotigotine ([1]; acute MPTP model, FluoroJade, versus MPTP alone) | Number of degenerating neurons in the mesencephalon ([1]; acute phase after MPTP) | Survival of the neurons and their nerve ends (dopamine transporter quantity in striatum) ([2]; MPTP 80 mg/kg, Rotigotine 0.3, 1 or 3 mg/kg daily for 7 days, Slow-Release-Formulation) | Dopaminergic innervation of the striatum (dopamine transporter density) ([2]; subacute phase after MPTP) | Content of pre-pro-enkephalin ([3]; basal ganglion, after the treatment and the washout phase) | Motor activity of the animals ([3]; daily Rotigotine injection, during the treatment and in the following washout phase) | Density of the nerve endings in the striatum ([3]; end of Rotigotine injection or washout phase, compared to untreated animals) | Dyskinesias (Parkinson-associated motor function disorders) (Parkinson patients; patients with prominent dyskinesias, Metman et al 2001) | UPDRS (Unified Parkinson's Disease Rating Scale) score (Parkinson patients; transdermal administration to Parkinson patients, WO 02/089777)
CCCN(CCc1cccs1)[C@@H]1CCc2c(O)cccc2C1 [(R)-enantiomer] | inactive | – | – | – | – | – | – | – | – | – | – | – | – | – | –
CCCN(CCc1cccs1)C1CCc2c(O)cccc2C1 (single isomer, unassigned; (-)) [Rotigotine, (−)-5,6,7,8-Tetrahydro-6-[propyl[2-(2-thienyl)ethyl]amino]-1-naphthol] | – | 3.8 | 66.7 | 76.8 | 34.9 | does not show any difference | about 50% | reduced | improves the survival of the neurons and their nerve ends in dependence of the dosage | almost completely preserved or restored | tendency toward normalization | clearly improved | significantly increased | improved | improvement

Reference: patent US20050197385A1, “Use of rotigotine for treatment or prevention of dopaminergic neuron loss” (Schwarz Pharma AG, priority 2004, published 2005)
